Measured values as given in BindingDB's records for doi:10.1021/cb500956g (University of North Carolina At Chapel Hill, 2015).

How the values were obtained:
Details in all cases: pH 8
[1] = molecular target: T1, E3 ubiquitin-protein ligase UHRF1 (Homo sapiens, UniProt Q96T88); assay: AlphaScreen Assay
T1 sequence (Q96T88 whole entry): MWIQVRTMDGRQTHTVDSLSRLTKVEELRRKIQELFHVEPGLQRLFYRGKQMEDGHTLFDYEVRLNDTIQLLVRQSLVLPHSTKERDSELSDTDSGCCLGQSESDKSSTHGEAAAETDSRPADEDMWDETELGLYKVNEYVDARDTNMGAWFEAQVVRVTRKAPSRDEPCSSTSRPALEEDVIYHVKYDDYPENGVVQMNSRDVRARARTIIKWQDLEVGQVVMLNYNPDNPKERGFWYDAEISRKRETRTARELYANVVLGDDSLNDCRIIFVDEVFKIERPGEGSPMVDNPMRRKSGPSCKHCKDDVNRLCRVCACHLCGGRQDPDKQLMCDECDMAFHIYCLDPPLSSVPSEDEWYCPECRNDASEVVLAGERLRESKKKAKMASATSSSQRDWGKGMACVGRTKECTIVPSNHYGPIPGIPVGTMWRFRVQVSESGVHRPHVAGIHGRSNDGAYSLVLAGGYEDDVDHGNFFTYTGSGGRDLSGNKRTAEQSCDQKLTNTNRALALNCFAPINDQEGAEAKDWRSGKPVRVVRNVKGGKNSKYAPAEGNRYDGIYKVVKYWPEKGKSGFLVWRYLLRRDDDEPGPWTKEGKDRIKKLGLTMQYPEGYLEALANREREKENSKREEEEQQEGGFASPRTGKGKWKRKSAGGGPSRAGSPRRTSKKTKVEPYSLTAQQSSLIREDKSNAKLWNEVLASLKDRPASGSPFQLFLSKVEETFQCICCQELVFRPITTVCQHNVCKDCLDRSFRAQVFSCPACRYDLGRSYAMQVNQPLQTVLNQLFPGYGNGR
Method: (§1) In brief, compound plates (1 μL at 10 mM highest concentration; 3-fold, 10-point dilutions in DMSO) were diluted in 1X assay buffer (20 mM TRIS pH 8.0, 25 mM NaCl, 2 mM DTT and 0.05% Tween-20) to 1 mM using a Multimek robotic pipettor (Nanoscreen), and 1 μL was spotted into the wells of 384-well low-volume Proxiplates (PerkinElmer). To these plates was added 9 μL of protein−peptide mix in a 1X assay buffer by Multidrop (Thermo) to bring the final compound concentration to 100 μM, and this was incubated for 30 min at RT. Next, 2 μL of a 1:1 mixture of streptavidin-conjugate donor and nickel-chelate acceptor beads (45μg/mL in 1X assay buffer) were added, and the plates were allowed to incubate for an additional 30 min in the dark at RT. After incubation, the plates were read on an EnVision multilabel reader equipped with an HTS AlphaScreen laser (PerkinElmer).

[2] = molecular target: T2, PHD finger protein 1 (Homo sapiens, UniProt O43189); assay: AlphaScreen Assay
T2 sequence (O43189 whole entry): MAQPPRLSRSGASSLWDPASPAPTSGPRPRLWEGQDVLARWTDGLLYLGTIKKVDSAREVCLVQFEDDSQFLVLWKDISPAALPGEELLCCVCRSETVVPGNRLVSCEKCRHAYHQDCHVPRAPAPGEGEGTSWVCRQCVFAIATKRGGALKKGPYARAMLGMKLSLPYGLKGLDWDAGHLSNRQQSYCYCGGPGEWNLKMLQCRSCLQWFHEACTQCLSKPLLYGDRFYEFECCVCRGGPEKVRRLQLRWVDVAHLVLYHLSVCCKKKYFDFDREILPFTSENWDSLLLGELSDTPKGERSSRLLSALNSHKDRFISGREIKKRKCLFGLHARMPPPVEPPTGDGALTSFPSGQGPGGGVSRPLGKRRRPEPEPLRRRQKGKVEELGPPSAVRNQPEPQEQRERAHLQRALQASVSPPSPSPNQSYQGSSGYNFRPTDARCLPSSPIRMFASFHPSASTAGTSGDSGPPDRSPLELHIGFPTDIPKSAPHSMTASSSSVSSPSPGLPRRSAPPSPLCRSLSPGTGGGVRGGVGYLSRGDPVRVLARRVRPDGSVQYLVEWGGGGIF
Method: as §1

[3] = molecular target: PHD finger protein 19 (Homo sapiens, UniProt Q5T6S3); assay: AlphaScreen Assay
Method: as §1

[4] = molecular target: MBT domain-containing protein 1 (Homo sapiens, UniProt Q05BQ5); assay: AlphaScreen Assay
Method: as §1

[5] = molecular target: T3, Chromobox protein homolog 7 (Homo sapiens, UniProt O95931); assay: AlphaScreen Assay
T3 sequence (O95931 whole entry): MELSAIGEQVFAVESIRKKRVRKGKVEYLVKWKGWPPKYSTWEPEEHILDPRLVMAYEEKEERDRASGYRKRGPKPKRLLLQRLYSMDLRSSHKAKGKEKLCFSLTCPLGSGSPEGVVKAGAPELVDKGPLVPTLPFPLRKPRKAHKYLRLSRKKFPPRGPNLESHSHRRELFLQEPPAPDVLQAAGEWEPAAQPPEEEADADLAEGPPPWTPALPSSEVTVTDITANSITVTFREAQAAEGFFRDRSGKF
Method: as §1

[6] = molecular target: T4, TP53-binding protein 1 (Homo sapiens, UniProt Q12888); assay: AlphaScreen Assay
Method: as §1

[7] = molecular target: PHD finger protein 23 (Homo sapiens, UniProt Q9BUL5); assay: AlphaScreen Assay
Method: as §1

[8] = molecular target: Lysine-specific demethylase 5A (Homo sapiens, UniProt P29375); assay: AlphaScreen Assay
Method: as §1

[9] = molecular target: T5, Isoform 4 of Lethal(3)malignant brain tumor-like protein 1 (4) (Homo sapiens, UniProt Q9Y468); assay: AlphaScreen Assay
T5 sequence (Q9Y468 whole entry): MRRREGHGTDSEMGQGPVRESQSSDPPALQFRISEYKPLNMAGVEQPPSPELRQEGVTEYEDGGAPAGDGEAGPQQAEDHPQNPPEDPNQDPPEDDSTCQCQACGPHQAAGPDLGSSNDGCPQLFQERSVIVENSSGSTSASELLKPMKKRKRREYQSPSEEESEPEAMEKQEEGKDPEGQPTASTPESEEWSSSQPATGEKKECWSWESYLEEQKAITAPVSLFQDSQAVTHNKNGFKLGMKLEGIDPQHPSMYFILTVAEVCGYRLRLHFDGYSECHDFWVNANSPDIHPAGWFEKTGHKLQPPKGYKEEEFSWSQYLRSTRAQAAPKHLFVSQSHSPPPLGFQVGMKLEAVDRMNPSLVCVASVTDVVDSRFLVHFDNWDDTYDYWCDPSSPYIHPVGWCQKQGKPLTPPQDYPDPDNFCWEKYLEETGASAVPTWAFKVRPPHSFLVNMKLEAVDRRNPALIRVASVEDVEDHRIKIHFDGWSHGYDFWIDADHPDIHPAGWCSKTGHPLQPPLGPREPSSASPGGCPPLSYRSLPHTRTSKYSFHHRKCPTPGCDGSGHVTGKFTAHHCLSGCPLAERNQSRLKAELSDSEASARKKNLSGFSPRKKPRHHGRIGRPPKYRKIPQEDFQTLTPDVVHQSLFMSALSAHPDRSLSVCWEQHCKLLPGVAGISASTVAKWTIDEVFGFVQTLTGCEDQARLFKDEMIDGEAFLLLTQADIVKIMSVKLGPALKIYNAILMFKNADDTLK
Method: as §1

[10] = molecular target: T4, TP53-binding protein 1; assay: ITC
Method: All ITC measurements were recorded at 25 °C with an AutoITC200 microcalorimeter (MicroCal Inc.). All protein and compound stock samples were in the target buffer (25 mM Tris-HCl, pH 8, 150 mM NaCl, and 2 mM β-mercaptoethanol), and then diluted in the same buffer to achieve the desired concentrations: 90 200 μM protein and 1 2 mM compound depending on the expected dissociation constant. The concentration of protein stock solutions were established using the Edelhoch method, whereas 10 mM compound stock solutions were prepared gravimetrically based on molecular weight. A typical experiment included a single 0.2 μL compound injection into a 200 μL cell filled with protein, followed by 25 subsequent 1.5 μL injections of compound. Injections were performed with a spacing of 180 seconds and a reference power of 8 μcal/sec.

Lysine-specific demethylase 5A, sequence (P29375 whole entry): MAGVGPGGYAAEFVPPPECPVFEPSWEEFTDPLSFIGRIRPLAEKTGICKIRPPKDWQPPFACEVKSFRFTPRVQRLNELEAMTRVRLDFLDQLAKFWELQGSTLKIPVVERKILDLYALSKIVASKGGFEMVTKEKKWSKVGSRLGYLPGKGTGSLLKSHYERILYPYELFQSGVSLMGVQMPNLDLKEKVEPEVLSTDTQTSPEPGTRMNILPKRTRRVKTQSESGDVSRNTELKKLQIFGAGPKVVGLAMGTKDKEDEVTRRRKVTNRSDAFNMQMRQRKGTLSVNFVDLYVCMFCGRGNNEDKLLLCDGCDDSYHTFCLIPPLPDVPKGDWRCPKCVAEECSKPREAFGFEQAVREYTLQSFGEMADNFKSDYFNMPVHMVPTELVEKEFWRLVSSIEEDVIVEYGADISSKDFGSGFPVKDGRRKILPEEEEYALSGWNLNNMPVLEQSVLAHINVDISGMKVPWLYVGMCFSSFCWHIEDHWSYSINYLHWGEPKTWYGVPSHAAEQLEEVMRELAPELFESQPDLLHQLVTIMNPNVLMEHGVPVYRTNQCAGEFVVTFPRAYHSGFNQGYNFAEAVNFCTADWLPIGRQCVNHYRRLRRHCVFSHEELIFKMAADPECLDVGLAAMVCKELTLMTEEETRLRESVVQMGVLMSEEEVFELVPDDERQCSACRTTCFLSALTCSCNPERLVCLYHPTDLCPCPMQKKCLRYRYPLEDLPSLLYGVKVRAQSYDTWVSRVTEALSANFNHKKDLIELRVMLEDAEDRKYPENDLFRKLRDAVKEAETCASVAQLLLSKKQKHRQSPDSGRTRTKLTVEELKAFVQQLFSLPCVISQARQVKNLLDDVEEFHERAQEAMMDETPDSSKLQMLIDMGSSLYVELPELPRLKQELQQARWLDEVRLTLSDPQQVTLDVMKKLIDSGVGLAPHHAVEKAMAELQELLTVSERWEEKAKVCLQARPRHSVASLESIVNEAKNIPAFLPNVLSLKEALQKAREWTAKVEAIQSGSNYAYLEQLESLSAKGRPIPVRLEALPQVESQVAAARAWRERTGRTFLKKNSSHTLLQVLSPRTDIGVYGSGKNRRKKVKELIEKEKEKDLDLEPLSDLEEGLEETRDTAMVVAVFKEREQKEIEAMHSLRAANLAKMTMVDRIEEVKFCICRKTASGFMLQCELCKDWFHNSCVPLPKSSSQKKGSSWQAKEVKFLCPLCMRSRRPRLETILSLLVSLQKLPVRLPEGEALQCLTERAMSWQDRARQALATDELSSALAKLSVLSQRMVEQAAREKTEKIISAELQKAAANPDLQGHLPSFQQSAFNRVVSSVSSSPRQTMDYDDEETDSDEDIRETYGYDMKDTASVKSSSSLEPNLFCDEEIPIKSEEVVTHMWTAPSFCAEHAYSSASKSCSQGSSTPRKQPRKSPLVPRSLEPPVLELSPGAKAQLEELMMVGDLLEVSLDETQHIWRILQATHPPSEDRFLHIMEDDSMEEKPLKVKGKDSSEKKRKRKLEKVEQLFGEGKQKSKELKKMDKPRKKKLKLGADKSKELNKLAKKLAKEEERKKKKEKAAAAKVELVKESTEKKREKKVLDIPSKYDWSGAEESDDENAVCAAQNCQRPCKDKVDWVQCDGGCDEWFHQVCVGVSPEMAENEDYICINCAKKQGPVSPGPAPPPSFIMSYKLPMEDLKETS
T4 sequence (Q12888 whole entry): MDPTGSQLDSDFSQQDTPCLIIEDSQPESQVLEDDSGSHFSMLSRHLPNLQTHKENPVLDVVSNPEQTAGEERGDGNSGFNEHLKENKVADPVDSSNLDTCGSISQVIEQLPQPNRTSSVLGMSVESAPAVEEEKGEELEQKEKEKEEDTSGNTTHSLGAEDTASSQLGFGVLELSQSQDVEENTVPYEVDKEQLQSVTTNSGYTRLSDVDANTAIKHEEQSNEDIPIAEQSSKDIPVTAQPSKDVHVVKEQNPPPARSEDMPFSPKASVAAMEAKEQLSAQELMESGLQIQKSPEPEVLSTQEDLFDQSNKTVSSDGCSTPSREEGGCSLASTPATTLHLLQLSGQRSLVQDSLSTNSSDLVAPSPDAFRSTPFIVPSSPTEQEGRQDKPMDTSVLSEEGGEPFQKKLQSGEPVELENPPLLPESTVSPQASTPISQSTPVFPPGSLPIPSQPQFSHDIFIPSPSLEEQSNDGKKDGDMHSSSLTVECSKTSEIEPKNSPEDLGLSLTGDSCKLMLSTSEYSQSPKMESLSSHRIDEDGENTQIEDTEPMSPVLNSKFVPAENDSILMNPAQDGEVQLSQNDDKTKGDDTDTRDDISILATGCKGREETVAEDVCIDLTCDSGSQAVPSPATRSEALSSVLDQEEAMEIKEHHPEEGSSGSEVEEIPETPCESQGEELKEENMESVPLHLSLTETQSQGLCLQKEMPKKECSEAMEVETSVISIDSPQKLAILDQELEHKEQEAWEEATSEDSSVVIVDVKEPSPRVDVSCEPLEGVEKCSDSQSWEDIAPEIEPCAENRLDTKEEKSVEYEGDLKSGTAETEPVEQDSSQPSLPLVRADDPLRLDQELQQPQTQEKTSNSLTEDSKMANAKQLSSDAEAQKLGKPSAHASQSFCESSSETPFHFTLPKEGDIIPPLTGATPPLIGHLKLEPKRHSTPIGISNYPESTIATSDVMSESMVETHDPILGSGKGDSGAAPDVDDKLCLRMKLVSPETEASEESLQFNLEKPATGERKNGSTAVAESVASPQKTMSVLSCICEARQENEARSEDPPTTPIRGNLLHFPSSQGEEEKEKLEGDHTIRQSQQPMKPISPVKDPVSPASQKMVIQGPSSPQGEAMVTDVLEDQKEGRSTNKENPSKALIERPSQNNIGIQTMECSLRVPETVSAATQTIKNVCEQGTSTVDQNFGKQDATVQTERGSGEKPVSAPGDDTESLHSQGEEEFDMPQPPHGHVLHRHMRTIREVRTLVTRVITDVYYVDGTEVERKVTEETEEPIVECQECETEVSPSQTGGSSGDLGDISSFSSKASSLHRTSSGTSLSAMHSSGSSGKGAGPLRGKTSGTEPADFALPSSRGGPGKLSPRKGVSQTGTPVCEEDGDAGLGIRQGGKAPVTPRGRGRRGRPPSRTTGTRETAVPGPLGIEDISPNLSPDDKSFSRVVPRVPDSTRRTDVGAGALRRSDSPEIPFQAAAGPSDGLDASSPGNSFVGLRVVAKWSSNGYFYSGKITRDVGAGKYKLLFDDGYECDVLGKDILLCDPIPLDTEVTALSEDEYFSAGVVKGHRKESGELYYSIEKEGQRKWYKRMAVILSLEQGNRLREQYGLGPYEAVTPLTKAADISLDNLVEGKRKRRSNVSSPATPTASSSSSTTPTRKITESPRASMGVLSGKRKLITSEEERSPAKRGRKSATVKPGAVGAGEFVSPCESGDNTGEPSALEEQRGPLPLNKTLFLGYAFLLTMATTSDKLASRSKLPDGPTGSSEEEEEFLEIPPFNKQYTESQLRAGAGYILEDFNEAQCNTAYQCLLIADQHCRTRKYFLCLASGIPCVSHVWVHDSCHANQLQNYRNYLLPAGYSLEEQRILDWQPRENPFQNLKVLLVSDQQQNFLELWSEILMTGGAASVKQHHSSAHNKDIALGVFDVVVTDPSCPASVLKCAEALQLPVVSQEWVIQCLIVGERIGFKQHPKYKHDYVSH
PHD finger protein 23, sequence (Q9BUL5 whole entry): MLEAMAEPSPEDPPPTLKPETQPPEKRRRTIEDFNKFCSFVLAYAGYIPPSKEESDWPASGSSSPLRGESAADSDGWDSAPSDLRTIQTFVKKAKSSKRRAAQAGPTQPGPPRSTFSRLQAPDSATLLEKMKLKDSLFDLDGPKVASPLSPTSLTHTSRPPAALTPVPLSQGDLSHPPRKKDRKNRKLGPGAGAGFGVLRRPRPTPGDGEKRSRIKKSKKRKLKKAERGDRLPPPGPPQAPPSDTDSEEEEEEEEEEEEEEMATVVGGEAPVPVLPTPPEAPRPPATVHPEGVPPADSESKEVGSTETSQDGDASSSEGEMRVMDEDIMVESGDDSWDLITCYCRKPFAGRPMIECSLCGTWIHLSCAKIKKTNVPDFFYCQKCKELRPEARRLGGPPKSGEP
MBT domain-containing protein 1, sequence (Q05BQ5 whole entry, the tested form may be a part): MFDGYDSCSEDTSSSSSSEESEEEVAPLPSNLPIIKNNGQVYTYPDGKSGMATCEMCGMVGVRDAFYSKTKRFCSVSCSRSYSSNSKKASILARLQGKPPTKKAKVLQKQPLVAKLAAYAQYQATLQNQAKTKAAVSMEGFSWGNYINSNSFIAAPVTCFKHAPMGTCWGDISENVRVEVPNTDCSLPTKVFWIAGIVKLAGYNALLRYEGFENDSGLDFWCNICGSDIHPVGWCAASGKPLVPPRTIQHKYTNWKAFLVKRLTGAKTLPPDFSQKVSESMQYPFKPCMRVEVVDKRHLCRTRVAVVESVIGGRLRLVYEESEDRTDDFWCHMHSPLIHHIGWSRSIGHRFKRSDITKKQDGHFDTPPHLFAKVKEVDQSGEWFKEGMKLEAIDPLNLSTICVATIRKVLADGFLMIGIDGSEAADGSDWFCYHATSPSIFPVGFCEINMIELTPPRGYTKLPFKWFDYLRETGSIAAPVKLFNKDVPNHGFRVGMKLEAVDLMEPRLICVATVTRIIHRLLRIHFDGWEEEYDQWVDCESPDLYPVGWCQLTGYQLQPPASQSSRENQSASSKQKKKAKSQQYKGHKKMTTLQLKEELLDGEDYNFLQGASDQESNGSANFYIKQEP

Row | Structure (SMILES) | IC50 [1] | IC50 [2] | IC50 [3] | IC50 [4] | IC50 [5] | IC50 [6] | IC50 [7] | IC50 [8] | IC50 [9] | Kd [10]
1 | CC(C)(C)OCCCNC(=O)c1cccc(Br)c1 [3-Bromo-N-(3-(tert-butoxy)propyl)benzamide (5)] | > 100 µM | > 100 µM | > 100 µM | > 100 µM | > 100 µM | > 100 µM | > 100 µM | > 100 µM | > 100 µM | 
2 | CN(CCCNC(=O)c1cccc(Br)c1)C(C)(C)C [3-Bromo-N-(3-(tert-butyl(methyl)amino)propyl)benzamide (UNC2892, 4)] | > 500 µM | > 500 µM | > 500 µM | > 500 µM | > 500 µM | > 500 µM | > 500 µM | > 500 µM | > 500 µM | 
3 | CC(C)(C)NCCCNC(=O)c1cccc(Br)c1 [3-Bromo-N-(3-(tert-butylamino)propyl)benzamide (UNC2170, 1)] | > 500 µM | > 500 µM | > 500 µM | > 500 µM | > 500 µM | 29 µM | > 500 µM | > 500 µM | > 500 µM | 22 µM
